# Test results reported in US10214544B2, “Imidazopyridazine and imidazothiadiazole compounds” (Universite de Montreal, priority 2015, dated 2019).
# Molecular target: PAR4 (Homo sapiens (Human), UniProt Q96RI0)
# Test: FLIPR assay in PAR4-expressing HEK293 cells (PAR4 antagonist activity)
# Assay type: cell-based
# Conditions: inhibition of H-Ala-Phe(4-F)-Pro-Gly-Trp-Leu-Val-Lys-Asn-Gly-NH2-induced intracellular calcium mobilization
# Source text: The FLIPR assay is an exemplary in vitro assay for measuring the activity of the PAR4 antagonists of the present invention. In this assay, intracellular calcium mobilization is induced in PAR4 expressing cells by a PAR4 agonist and calcium mobilization is monitored. See, e.g., Example A.
# HEK293 cells stably expressing PAR4 were generated by a standard method of transfection of human PAR4 (F2R23) cDNA expression vector and selected based on PAR4 protein expression or mRNA expression. […] These cells also express endogenous PAR1 and can elicit calcium signal upon stimulation with PAR1 agonist peptide. Therefore, the same cells were also used to determine selectivity against PAR1 and agonist activity for both receptors. Cells from HEK293 PAR4 Clone 1.2A (BMS Arctic ID 383940) were propagated and used for calcium mobilization studies.
# FLIPR-based calcium mobilization assay in HEK293 cells was used to measure PAR4 antagonism, agonism, and selectivity against PAR1. The activity of the PAR4 antagonists of the present invention were tested in PAR4 expressing cells by monitoring H-Ala-Phe(4-F)-[…]NH2-induced intracellular calcium mobilization. Counter screens for agonist activity and PAR1 antagonist activity were also performed. Briefly, PAR1/PAR4-expressing HEK293 cells were grown in DMEM (Life Technology, Grand Island, N.Y.) containing 10% heat-inactivated FBS, 1% Penicillin-Streptomycin, 10 μg/mL blasticidin, and 100 μg/mL Zeocin at 37° C. with 5% CO2. Cells were plated overnight prior to the experiment in a black 384-well Purecoat Amine clear bottom plate (Becton Dickinson Biosciences, San Jose, Calif.) at 10,000 cells/well in 30 μL growth medium and incubated in a humidified chamber at 37° C. with 5% CO2 overnight. Prior to compound addition, the cell medium was replaced with […] of 1× calcium and magnesium-containing Hank's Balanced Saline Solution (HBSS) (with 20 mM HEPES) and 1:1000 diluted fluorescent calcium indicator (Codex Biosolutions, Gaithersburg, Md.). After a 30 minute incubation period at 37° C. and a further 30 minute incubation and equilibration period at room temperature, 20 μL test compound (diluted in 1× HBSS buffer) was added at various concentrations at 0.17% dimethyl sulfoxide (DMSO) final concentration. Changes in fluorescence intensity were measured using a Functional Drug Screening System (FDSS, Hamamatsu, Japan) to determine agonist activities. The cells were then incubated for 30 minutes at room temperature followed by addition of 20 μL of agonist peptide for antagonist activity measurement. […] Compound potency was derived from 11-point concentration-response curves.
# The following Table sets out results obtained employing various compounds of the invention tested in the FLIPR assay. As indicated above, the FLIPR assay, an in vitro assay, measures the PAR4 antagonist activity of compounds tested as described in Example A.
# PAR4, sequence (Q96RI0 18-385): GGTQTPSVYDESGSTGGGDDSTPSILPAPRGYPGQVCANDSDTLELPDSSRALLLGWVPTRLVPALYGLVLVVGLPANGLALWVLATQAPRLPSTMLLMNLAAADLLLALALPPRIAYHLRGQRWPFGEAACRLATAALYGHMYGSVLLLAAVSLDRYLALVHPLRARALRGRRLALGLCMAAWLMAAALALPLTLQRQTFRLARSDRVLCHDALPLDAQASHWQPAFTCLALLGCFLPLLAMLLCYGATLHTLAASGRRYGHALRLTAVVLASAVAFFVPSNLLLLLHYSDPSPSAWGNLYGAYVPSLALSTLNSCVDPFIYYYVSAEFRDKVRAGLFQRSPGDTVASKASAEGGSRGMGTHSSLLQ
row,Structure (SMILES),EC50 [nM]
1,COc1cc(OCc2cccc(NC(=O)c3ccc(C)c(F)c3)c2)c2cc(-c3cn4nc(OC)sc4n3)oc2c1 [Example 163],2.1
2,COc1cc(OCc2cccc(NC(=O)C3CCOCC3)c2)c2cc(-c3cn4nc(OC)sc4n3)oc2c1 [Example 165],4.6
3,COc1cc(OCc2cccc(NC(=O)c3ccc(OC)c(C(F)(F)F)c3)c2)c2cc(-c3cn4nc(OC)sc4n3)oc2c1 [Example 157],2.8
4,COc1cc(OCc2cccc(NC(=O)c3ccccn3)c2)c2cc(-c3cn4nc(OC)sc4n3)oc2c1 [Example 139],2.7
5,COc1cc(OCc2ccc3c(c2)N(C(=O)c2ccccc2C)CC3)c2cc(-c3cn4nc(OC)sc4n3)oc2c1 [Example 101],3.1
6,COc1cc(OCc2cccc(NC(=O)c3ccc(C(F)(F)F)c(F)c3)c2)c2cc(-c3cn4nc(OC)sc4n3)oc2c1 [Example 161],1.5
7,COc1cc(OCc2cccc(NC(=O)c3cccc(N(C)C)c3)c2)c2cc(-c3cn4nc(OC)sc4n3)oc2c1 [Example 144],3.8
8,"COc1cc(OCc2cccc(NC(=O)c3ccccc3)c2)c2cc(-c3cn4nc(OC)sc4n3)oc2c1 [Example 1, N-(3-(((6-methoxy-2-(2-methoxyimidazo[2,1-b][1,3,4]thiadiazol-6-yl)benzofuran-4-yl)oxy)methyl)phenyl)benzamide]",1.1
9,COc1cc(OCc2cccc(NC(=O)CC3CCCCC3)c2)c2cc(-c3cn4nc(OC)sc4n3)oc2c1 [Example 146],7.5
10,COc1cc(OCc2cccc(NC(=O)c3c(F)cccc3F)c2)c2cc(-c3cn4nc(OC)sc4n3)oc2c1 [Example 143],5.9
11,"COc1cc(OCc2cccc(N(C)C(=O)c3ccccc3)c2)c2cc(-c3cn4nc(OC)sc4n3)oc2c1 [Example 83, N-(3-(((6-methoxy-2-(2-methoxyimidazo[2,1-b][1,3,4]thiadiazol-6-yl)benzofuran-4-yl)oxy)methyl)phenyl)-N-methylbenzamide]",4.1
12,COc1cc(OCc2cccc(NC(=O)CC3CCCC3)c2)c2cc(-c3cn4nc(OC)sc4n3)oc2c1 [Example 138],2.5
13,COc1cc(OCc2cccc(NC(=O)c3ccc4c(c3)OCO4)c2)c2cc(-c3cn4nc(OC)sc4n3)oc2c1 [Example 22],1.1
14,"COc1cc(OCc2cccc(NS(=O)(=O)c3ccccc3)c2)c2cc(-c3cn4nc(OC)sc4n3)oc2c1 [Example 7, N-(3-(((6-methoxy-2-(2-methoxyimidazo[2,1-b][1,3,4]thiadiazol-6-yl)benzofuran-4-yl)oxy)methyl)phenyl)benzenesulfonamide]",10
15,COc1cc(OCc2cccc3c2CCN3C(=O)c2ccnnc2)c2cc(-c3cn4nc(OC)sc4n3)oc2c1 [Example 128],> 3300
16,COc1cc(OCc2cccc(NC(=O)c3ccc(C)cc3)c2)c2cc(-c3cn4nc(OC)sc4n3)oc2c1 [Example 32],1.6
17,COc1cc(OCc2cccc(NC(=O)c3cccc(C(F)(F)F)c3)c2)c2cc(-c3cn4nc(OC)sc4n3)oc2c1 [Example 149],2
18,COc1cc(OCc2cccc(NC(=O)C3CCCC3)c2)c2cc(-c3cn4nc(OC)sc4n3)oc2c1 [Example 145],6.8
19,COc1cc(OCc2cccc(N(C)C(=O)c3ccc(C)cc3)c2)c2cc(-c3cn4nc(OC)sc4n3)oc2c1 [Example 89],3.5
20,COc1cc(OCc2cccc(N(C)C(=O)c3sc(C)nc3C)c2)c2cc(-c3cn4nc(OC)sc4n3)oc2c1 [Example 93],4.8
21,COc1cc(OCc2cccc(NC(=O)c3ccc(F)c(C(F)(F)F)c3)c2)c2cc(-c3cn4nc(OC)sc4n3)oc2c1 [Example 30],1.8
22,COc1cc(OCc2cccc(NC(=O)c3cccc(F)c3)c2)c2cc(-c3cn4nc(OC)sc4n3)oc2c1 [Example 28],2
23,COc1cc(OCc2ccc3c(c2)N(C(=O)c2cc(C)cc(C(F)(F)F)c2)CC3)c2cc(-c3cn4nc(OC)sc4n3)oc2c1 [Example 111],6
24,"COc1cc(OCc2cccc(NC(=O)c3cccc(OC(F)(F)F)c3)c2)c2cc(-c3cn4nc(OC)sc4n3)oc2c1 [Example 6, N-(3-(((6-methoxy-2-(2-methoxyimidazo[2,1-b][1,3,4]thiadiazol-6-yl)benzofuran-4-yl)oxy)methyl)phenyl)-3-(trifluoromethoxy)benzamide]",1.4
25,COc1cc(OCc2cccc(NC(=O)C(C)C)c2)c2cc(-c3cn4nc(OC)sc4n3)oc2c1 [Example 136],3.9
26,COc1cc(OCc2cccc(NC(=O)c3cccc(C)c3)c2)c2cc(-c3cn4nc(OC)sc4n3)oc2c1 [Example 20],1.4

row,Structure (SMILES),EC50 [nM]
1,COc1cc(OCc2cccc3c2CCN3C(=O)c2sc(C)nc2C)c2cc(-c3cn4nc(OC)sc4n3)oc2c1 [Example 129],4.2
2,COc1cc(OCc2cccc(NC(=O)c3cccnc3Cl)c2)c2cc(-c3cn4nc(OC)sc4n3)oc2c1 [Example 58],0.74
3,COc1cc(OCc2ccc3c(c2)N(C(=O)c2ccc(C)cc2)CC3)c2cc(-c3cn4nc(OC)sc4n3)oc2c1 [Example 105],3.4
4,COc1cc(OCc2cccc(N(C)C(C)=O)c2)c2cc(-c3cn4nc(OC)sc4n3)oc2c1 [Example 94],3.8
5,COc1cc(OCc2cccc(NC(=O)c3cn4nc(C(C)(F)F)sc4n3)c2)c2cc(-c3cn4nc(OC)sc4n3)oc2c1 [Example 68],8.9
6,COc1cc(OCc2cccc(NC(=O)c3cccc4ccccc34)c2)c2cc(-c3cn4nc(OC)sc4n3)oc2c1 [Example 15],1.7
7,COc1cc(OCc2cccc(NC(=O)c3ccnc(F)c3)c2)c2cc(-c3cn4nc(OC)sc4n3)oc2c1 [Example 48],2.7
8,COc1cc(OCc2cccc(NC(=O)c3cccc(-c4ccccc4)c3)c2)c2cc(-c3cn4nc(OC)sc4n3)oc2c1 [Example 158],12
9,COc1cc(OCc2cccc(NC(=O)c3ccc([N+](=O)[O-])cc3)c2)c2cc(-c3cn4nc(OC)sc4n3)oc2c1 [Example 33],1.8
10,COc1cc(OCc2cccc(N(C)C(=O)c3ccccc3F)c2)c2cc(-c3cn4nc(OC)sc4n3)oc2c1 [Example 88],3.3
11,COc1cc(OCc2cccc(NC(=O)c3ccccc3C)c2)c2cc(-c3cn4nc(OC)sc4n3)oc2c1 [Example 27],0.87
12,COc1cc(OCc2cccc3c2CCN3C(=O)c2cc(OC(F)F)cc(C(F)(F)F)c2)c2cc(-c3cn4nc(OC)sc4n3)oc2c1 [Example 130],5.2
13,COc1cc(OCc2cccc(NC(=O)c3cncnc3)c2)c2cc(-c3cn4nc(OC)sc4n3)oc2c1 [Example 57],1.8
14,COc1cc(OCc2cccc(N(C)S(=O)(=O)c3ccccc3)c2)c2cc(-c3cn4nc(OC)sc4n3)oc2c1 [Example 91],2
15,COc1cc(OCc2cccc(NC(=O)c3ccccc3Cl)c2)c2cc(-c3cn4nc(OC)sc4n3)oc2c1 [Example 25],1.7
16,COc1cc(OCc2cccc(NC(=O)NCc3ccccc3)c2)c2cc(-c3cn4nc(OC)sc4n3)oc2c1 [Example 38],4.8
17,COc1ccc(C(=O)Nc2cccc(COc3cc(OC)cc4oc(-c5cn6nc(OC)sc6n5)cc34)c2)c(OC)c1 [Example 42],2.3
18,COc1cc(OCc2cccc3c2CCN3C(=O)c2ccccc2F)c2cc(-c3cn4nc(OC)sc4n3)oc2c1 [Example 120],4.2
19,COc1cc(OCc2cccc(NC(=O)c3ccnnc3)c2)c2cc(-c3cn4nc(OC)sc4n3)oc2c1 [Example 69],12
20,COc1cc(OCc2cccc(NC(=O)c3cc(Cl)nc(Cl)c3)c2)c2cc(-c3cn4nc(OC)sc4n3)oc2c1 [Example 55],1.1
21,COc1cc(OCc2cccc(NC(=O)c3ccc(F)c(F)c3)c2)c2cc(-c3cn4nc(OC)sc4n3)oc2c1 [Example 166],2.3
22,COc1cc(OCc2cccc(NC(=O)c3cc(C)cc(C(F)(F)F)c3)c2)c2cc(-c3cn4nc(OC)sc4n3)oc2c1 [Example 71],1.9
23,COc1cc(OCc2cccc(NC(=O)c3ccc(C)nc3Cl)c2)c2cc(-c3cn4nc(OC)sc4n3)oc2c1 [Example 64],1.4
24,COc1cc(OCc2cccc(NC(=O)c3cc(C(F)(F)F)ccc3C(F)(F)F)c2)c2cc(-c3cn4nc(OC)sc4n3)oc2c1 [Example 9],2
25,COc1cc(OCc2cccc(NC(=O)c3cc(F)ccc3F)c2)c2cc(-c3cn4nc(OC)sc4n3)oc2c1 [Example 154],2.2
